Laboratory results reported in patent US6060481A, “Method for improving insulin sensitivity using an adenosine receptor antagonist” (priority 1999, dated 2000).

Columns and labels:
[1] = target: T1, human A1 adenosine receptor (Homo sapiens, UniProt P30542); test: Binding constants against cloned and expressed human adenosine receptor subtypes (A1); details: read-out: Binding constant (KD) A1
T1 construct: expressed in transfected cells
T1 sequence (P30542 1-326): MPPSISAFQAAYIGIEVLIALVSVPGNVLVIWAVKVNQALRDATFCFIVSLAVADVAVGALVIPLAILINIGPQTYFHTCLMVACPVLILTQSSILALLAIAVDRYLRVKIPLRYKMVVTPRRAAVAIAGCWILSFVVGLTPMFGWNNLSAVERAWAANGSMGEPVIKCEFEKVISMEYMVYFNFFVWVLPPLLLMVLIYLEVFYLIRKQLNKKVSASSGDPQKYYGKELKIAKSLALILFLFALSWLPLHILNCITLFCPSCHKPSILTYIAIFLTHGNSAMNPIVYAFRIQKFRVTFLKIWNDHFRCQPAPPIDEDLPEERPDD

[2] = tested on: protein tyrosine phosphatases in WGA eluates; details: 1 mM in the buffers
Protocol: The procedure was modified by decreasing the length of autoradiographic exposure to increase sensitivity. ^32 P-poly Glu:Tyr4:1 substrate was incorporated into the 100% SDS polyacrylamide gel prior to polymerization. WGA eluates which were run on the gels were concentrated on Centricon filters to approximately 2 mg/ml. Aliquots (100 μg) were run on the gels. Gels were washed overnight to remove SDS. The proteins were first fully denatured in 6M guanidine HCl and then, after electrophoresis, renatured by incubation in phosphatase assay buffers containing 0.04% Tween® 40 and high concentrations of dithiothreitol (DTT). Next, the gels were dried and exposed to Kodak X-Omat x-ray film at -70° C. for various times. […] In some experiments, concentrated WGA eluates were treated with the antibody anti-PTPase 1B (5 g) prior to assaying phosphatase activity. The antibody was added to 50 μl concentrated eluate and the sample was incubated for 1 h on a tube vortexer at room temperature. Fifty μl of 50% protein A Agarose were centrifuged in a separate tube at 14,000 g for 30 sec. The supernatant was removed, and at the end of 1 h, the WGA eluate was introduced to the agarose precipitate and vortexing was continued for an additional 30 min. As a control, WGA eluates that were not treated with antibody were also introduced to the gels. […]

Molecule: CCCn1c(=O)[nH]c(=O)c2[nH]cnc21 [Enprofylline, 3-n-propylxanthine]
- Kd [1]: 156 µM

Molecule: sodium vanadate
- PTPase bands in in-gel assay [2]: Bands disappeared
